Measurements reported in PMC10584882 (Communications Biology, 2023).
pEC50: −log10 of the molar value. “And” between values parts separate entries of the source, which are not always exact repeats. Equal entries are not always repeated.

What was measured:
SARS-CoV-2 [1] = experiment: Viral loading determination via RT-qPCR in LC-HK2 cells; format: cell-based; details: Severe acute respiratory syndrome coronavirus 2; LC-HK2, RT-qPCR, 72 h post-infection; read-out: Viral titer EC50
SARS-CoV-2-GFP = system: SARS-CoV-2-GFP; set-up: method as in PMID 33811162; details: VERO E6 cell-based SARS-CoV-2 infection assays; cited from earlier work
LC-HK2 cells = experiment: Cell viability assay (CellTiter-Glo), LC-HK2; format: cell-based, human; details: for Cell viability (% control): LC-HK2, 72 h, replicates
Procedure: (§1) VERO-CCL81 was seeded in 96-well plates at a density of 1.5×10^4 cells/well, while LC-HK2 was seeded at a density of 3×10^4 cells/well, following 24 h incubation at 37 °C and 5% CO2 atmosphere. The cell culture media was replaced by serial dilutions of the compounds and the cell viability was determined 72 h post-treatment via CellTiter-Glo® Luminescent Cell Viability Assay (Promega), following the manufacturer’s instructions. Luminescent signal was recorded using a CLARIOstar multi-mode microplate reader (BMG Labtech, Germany). Graphs were generated using GraphPad Prism software version 8.0 (La Jolla, CA, USA, www.graphpad.com). Samples deemed to be technical failures and extreme outlier were removed.

CatL = biological target: T1, CatL (Homo sapiens, UniProt P07711); experiment: Reversibility of covalent cathepsin inhibition (CatL, 60 min incubation); format: biochemical; details: 1 nM CatL, 1–80 nM inhibitor, 37 °C
T1 construct: made in house
From the text: We observed no increase in relative inhibition over time, thus concluding that the covalent bond between cathepsins and inhibitors is reversible.

SARS-CoV-2 [2] = experiment: Viral loading determination via RT-qPCR in VERO-CCL81 cells; format: cell-based; details: for Viral titer (% control): VERO CCL81, RT-qPCR, experiments 1 and 2
VERO-CCL81 cells = experiment: Cell viability assay (CellTiter-Glo), VERO-CCL81; format: cell-based; details: for Cell viability (% control): VERO CCL81, 72 h, replicates of experiments 1 and 2
Procedure: as §1

T1 sequence (P07711 114-333): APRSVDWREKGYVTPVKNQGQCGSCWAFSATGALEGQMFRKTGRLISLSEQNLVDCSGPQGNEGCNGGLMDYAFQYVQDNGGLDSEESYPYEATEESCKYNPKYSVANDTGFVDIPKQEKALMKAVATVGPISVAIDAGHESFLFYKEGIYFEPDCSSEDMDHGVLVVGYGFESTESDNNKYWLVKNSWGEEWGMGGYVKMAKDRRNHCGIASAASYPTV

CCCC[C@@H](C=O)NC(=O)[C@H](CC(C)C)NC(=O)OCc1ccccc1 [Calpeptin, reference compound]
pEC50 (SARS-CoV-2 [1]): 5.77
concentration giving high suppression of virus replication (SARS-CoV-2-GFP): below 100 nM
cytotoxicity (in words) (LC-HK2 cells; LC-HK2, 72 h): no cytotoxicity up to low micromolar concentrations
Cell viability (% control) (LC-HK2 cells; 0.0006 μM): 102.39 % control and 97.09 % control and 90.2 % control
Cell viability (% control) (LC-HK2 cells; 0.0012 μM): 105.44 % control and 96.04 % control and 89.58 % control
Cell viability (% control) (LC-HK2 cells; 0.0024 μM): 109.38 % control and 90.68 % control and 83.12 % control
Cell viability (% control) (LC-HK2 cells; 0.0049 μM): 106.45 % control and 86.68 % control and 80.82 % control
Cell viability (% control) (LC-HK2 cells; 0.0098 μM): 103.61 % control and 82.95 % control and 76.92 % control
Cell viability (% control) (LC-HK2 cells; 0.0195 μM): 100.9 % control and 86.53 % control and 77.59 % control
Cell viability (% control) (LC-HK2 cells; 0.0391 μM): 106.77 % control and 84.3 % control and 75.79 % control
Cell viability (% control) (LC-HK2 cells; 0.0781 μM): 97.38 % control and 80.51 % control and 79.02 % control and 97.54 % control and 99.61 % control
Cell viability (% control) (LC-HK2 cells; 0.1563 μM): 92.74 % control and 97.96 % control and 106.67 % control and 94.71 % control and 97.7 % control and 98.23 % control
Cell viability (% control) (LC-HK2 cells; 0.3125 μM): 85.53 % control and 96.17 % control and 104.18 % control and 94.18 % control and 98.15 % control and 95.62 % control
Cell viability (% control) (LC-HK2 cells; 0.625 μM): 92.03 % control and 97.64 % control and 102.17 % control and 95.74 % control and 98.42 % control and 100.55 % control
Cell viability (% control) (LC-HK2 cells; 1.25 μM): 89.04 % control and 94.62 % control and 99.72 % control and 93.66 % control and 97.57 % control and 100.65 % control
Cell viability (% control) (LC-HK2 cells; 2.5 μM): 87.58 % control and 93.98 % control and 97.34 % control and 91.87 % control and 96.78 % control and 96.3 % control
Cell viability (% control) (LC-HK2 cells; 5 μM): 84.13 % control and 88.53 % control and 93.5 % control and 84.79 % control and 90.37 % control and 89.81 % control
Cell viability (% control) (LC-HK2 cells; 10 μM): 82.98 % control and 84.95 % control and 87.98 % control and 79.13 % control and 81.86 % control and 83.76 % control
Cell viability (% control) (LC-HK2 cells; 100 μM): 28.28 % control and 43.21 % control and 44.92 % control
reversibility of covalent bond to cathepsin (CatL): reversible
pEC50 (SARS-CoV-2 [2]; Severe acute respiratory syndrome coronavirus 2, VERO-CCL81, RT-qPCR, 48 h post-infection, read-out: Viral titer EC50): 6.00
Viral titer (% control) (SARS-CoV-2 [2]; 0.0781 μM): 100 % control
Viral titer (% control) (SARS-CoV-2 [2]; 0.1563 μM): 100 % control
Viral titer (% control) (SARS-CoV-2 [2]; 0.3125 μM): 100 % control and 79.17 % control
Viral titer (% control) (SARS-CoV-2 [2]; 0.625 μM): 59.82 % control and 89.92 % control
Viral titer (% control) (SARS-CoV-2 [2]; 1.25 μM): 52.69 % control and 49.08 % control
Viral titer (% control) (SARS-CoV-2 [2]; 2.5 μM): 27.29 % control and 39.96 % control
Viral titer (% control) (SARS-CoV-2 [2]; 5 μM): 41.34 % control and 28.43 % control
Viral titer (% control) (SARS-CoV-2 [2]; 10 μM): 15.97 % control and 10.75 % control
Cell viability (% control) (VERO-CCL81 cells; 0.0781 μM): 94.74 % control and 101.25 % control and 101.91 % control
Cell viability (% control) (VERO-CCL81 cells; 0.1563 μM): 97.56 % control and 99.32 % control and 100.01 % control
Cell viability (% control) (VERO-CCL81 cells; 0.3125 μM): 82.19 % control and 89.43 % control and 92.71 % control and 95.68 % control and 100.03 % control and 106.22 % control
Cell viability (% control) (VERO-CCL81 cells; 0.625 μM): 82.29 % control and 95.76 % control and 97.52 % control and 95.98 % control and 103.97 % control and 109.96 % control
Cell viability (% control) (VERO-CCL81 cells; 1.25 μM): 89.05 % control and 94.79 % control and 98.25 % control and 97.91 % control and 104.77 % control and 107.22 % control
Cell viability (% control) (VERO-CCL81 cells; 2.5 μM): 86.26 % control and 94.8 % control and 103.32 % control and 94.24 % control and 103.27 % control and 108.67 % control
Cell viability (% control) (VERO-CCL81 cells; 5 μM): 90.56 % control and 101.72 % control and 106.83 % control and 95.97 % control and 102.4 % control and 105.71 % control
Cell viability (% control) (VERO-CCL81 cells; 10 μM): 85.37 % control and 97.81 % control and 103.34 % control and 84.83 % control and 98.42 % control and 92.92 % control
cytotoxicity (in words) (VERO-CCL81 cells; VERO-CCL81, 72 h): no cytotoxicity up to low micromolar concentrations
